Entries after “also recorded” stand apart in the source; their conditions may differ.
Key:
CYP81A6 = settings: reported so far; cited from earlier work
[1] = tested on: AK454412 (wheat-derived P450) co-expressed with TaCPR; test: In vitro metabolism test using co-expression crude enzyme of AK454412 and TaCPR (LC/MS); type: in vitro ADME; settings: 10 μM fenquinotrione, 1 mg crude enzyme, 1 mM β-NADPH, 30° C., 1 hour
Procedure: A single colony of the recombinant E. coli into which each of the above-described two expression constructs had been introduced was inoculated in 3 ml of LB liquid medium, followed by culturing at 37° C. and 200 rpm overnight. 2.5 mL of the resultant culture fluid was added to 250 mL of TB medium (containing 100 ppm carbenicillin and 50 ppm chloramphenicol) held in a 1 L Erlenmeyer flask, followed by culturing at 37° C. and 200 rpm until an OD600 of about 0.5 to 0.6 was obtained. After the resultant flask was cooled with ice, IPTG and aminolaevulinic acid were added thereto to final concentrations of 1 mM and 0.5 mM, respectively, followed by culturing at 20° C. and 110 rpm. 22 hours after the IPTG induction, the resultant culture fluid was centrifuged (4° C., 15,000 rpm, 1 min). A bacterial cell in the obtained 500 mL of culture fluid was suspended in 35 mL of P450 Buffer [50 mM potassium phosphate buffer (pH 7.3), 20% glycerol, 1 mM EDTA, and 1 mM DTT] to be sonicated, followed by centrifugation at 4° C. and at 6,000×g for 10 minutes. The supernatant was centrifuged at 4° C. and at 100,000×g for 1 hour, and a solution obtained by adding P450 Buffer by 1 mL to the obtained precipitate and homogenizing the resultant with a Teflon homogenizer was used as a co-expression crude enzyme solution for AK454412 and TaCPR. […]

[2] = tested on: Arabidopsis thaliana having AK454412 forced expression; test: Fenquinotrione sensitivity test on MS solid medium, AK454412 forced expression; type: in vivo; settings: 10,000 nM in MS solid medium, 22° C., about 10 days, evaluated subjectively
Procedure: First, a binary vector, pMLH7133-AK454412_for At, for transforming Arabidopsis thaliana was produced. With the pET-22b-AK454412 produced in Example 1 used as a template, PCR was performed using a primer set of pMLH-tplb Xba IF (Fd) and pMLH-tplb Sac IF (Rv) to obtain a DNA fragment in which XbaI/SacI recognition sequence and 15 bases of In-Fusion recognition sequence were added to a terminal of full length CDS sequence of the AK454412 gene. The obtained DNA fragment and pMLH7133 vector, having been digested with the restriction enzymes XbaI/SacI, were linked to each other with In-Fusion HD Cloning Kit (Clontech) to produce a binary vector, pMLH7133-AK454412_for At, for transforming Arabidopsis thaliana (FIG. 8). The obtained construct was introduced into Agrobacterium EHA105 strain by an electroporation method. The transformation of Arabidopsis thaliana was performed by a floral dip method using this recombinant Agrobacterium.
With a sensitivity difference from wild type Arabidopsis thaliana used as an index, it was verified whether or not the created transformant had resistance to fenquinotrione. […] The sensitivity to this drug was evaluated subjectively in accordance with the degree of chlorosis of acting symptom. […]

Structure (SMILES): COc1ccc(-n2c(=O)c(C(=O)C3C(=O)CCCC3=O)nc3c(Cl)cccc32)cc1 [fenquinotrione]
- metabolic reactivity of CYP81A6 against the compound (CYP81A6): exhibits metabolic reactivity
- metabolic degradation of fenquinotrione (production of the demethylated product, LC/MS) [1]: metabolically degrades fenquinotrione to the demethylated product; also recorded: a parent peak of fenquinotrione was reduced, and a peak of the demethylated product appeared
- chlorosis symptom [2]: not observed
